Measurements reported in patent US4399126A, “Modulators of the complement system” (American Cyanamid Company, priority 1982, dated 1983).
Where two headings read alike, the source gives them in different places.

Assays:
activated human C1 = biological target: T1, activated human C1 (Homo sapiens, UniProt P09871); assay: Test Code 026 (C1 inhibitor); type: biochemical; conditions: serial twofold dilution assay; higher well number indicates higher activity
T1 sequence (P09871 16-437 limits assumed): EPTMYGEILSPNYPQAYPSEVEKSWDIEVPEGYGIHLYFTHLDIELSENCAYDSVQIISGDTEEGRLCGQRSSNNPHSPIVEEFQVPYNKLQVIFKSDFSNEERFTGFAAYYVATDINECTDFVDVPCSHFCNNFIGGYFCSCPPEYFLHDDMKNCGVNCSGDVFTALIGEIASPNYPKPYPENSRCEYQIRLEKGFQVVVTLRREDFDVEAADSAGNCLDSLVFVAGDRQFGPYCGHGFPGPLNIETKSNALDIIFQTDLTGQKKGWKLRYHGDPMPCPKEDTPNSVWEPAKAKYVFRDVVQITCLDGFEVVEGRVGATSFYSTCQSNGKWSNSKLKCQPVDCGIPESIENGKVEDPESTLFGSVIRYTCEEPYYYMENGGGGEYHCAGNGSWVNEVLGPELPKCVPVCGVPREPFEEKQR
T1 sequence (P09871 438-688 limits assumed): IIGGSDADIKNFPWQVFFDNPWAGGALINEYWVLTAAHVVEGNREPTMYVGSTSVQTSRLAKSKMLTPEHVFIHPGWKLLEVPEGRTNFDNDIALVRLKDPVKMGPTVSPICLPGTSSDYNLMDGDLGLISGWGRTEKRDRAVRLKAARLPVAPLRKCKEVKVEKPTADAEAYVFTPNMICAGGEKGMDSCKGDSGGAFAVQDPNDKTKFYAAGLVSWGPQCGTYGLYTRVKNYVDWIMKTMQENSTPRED

[1] = tested on: complement activity of sera; assay: Guinea Pig Intraperitoneal Test (GPIP); type: in vivo; conditions: Cavia porcellus, ip, 200 mg/kg i.p., capillary complement assay
Method: Percent inhibition is calculated by comparison with simultaneous controls.

[2] = tested on: late components of human complement (C3-C9); assay: Test Code 035 (C3-C9 inhibitor), lysis of EAC 142; type: biochemical; conditions: serial twofold dilution assay; higher well number indicates higher activity
[3] = blood 2 hours after injection, read-out: in vivo Activity Guinea Pig % Inhibition Intraperitoneal, 2 hours
[4] = blood 6 hours after injection, read-out: in vivo Activity Guinea Pig % Inhibition Intraperitoneal, 6 hours
[5] = blood 24 hours after injection, read-out: in vivo Activity Guinea Pig % Inhibition Intraperitoneal, 24 hours

SMILES	in vitro Activity Cl 026 Wells (activated human C1) [Wells]	inhibition at 200 mg/kg [1, 3] [%]	inhibition at 200 mg/kg [1, 4] [%]	inhibition at 200 mg/kg [1, 5] [%]	in vitro Activity C-Late 035 Wells [2] [Wells]
O=C(CC(=O)Nc1ccc(S[C@@H]2O[C@H](COS(=O)(=O)O)[C@@H](O[C@H]3O[C@H](COS(=O)(=O)O)[C@@H](OS(=O)(=O)O)[C@H](OS(=O)(=O)O)[C@H]3OS(=O)(=O)O)[C@H](OS(=O)(=O)O)[C@H]2OS(=O)(=O)O)cc1)Nc1ccc(S[C@@H]2O[C@H](COS(=O)(=O)O)[C@@H](O[C@H]3O[C@H](COS(=O)(=O)O)[C@@H](OS(=O)(=O)O)[C@H](OS(=O)(=O)O)[C@H]3OS(=O)(=O)O)[C@H](OS(=O)(=O)O)[C@H]2OS(=O)(=O)O)cc1.[Na].[Na].[Na].[Na].[Na].[Na].[Na].[Na].[Na].[Na].[Na].[Na].[Na].[Na] [tetradecasodium N,N'-bis[4-[2,3,6-tri-O-sulfo-4-O-(2,3,4,6-tetra-O-sulfo-α-D-glucopyranosyl)-β-D-glucopyranosylthio]phenyl]propanediamide]	9.9	90	90	47	1.6
O=C(Nc1ccc(S[C@@H]2O[C@H](COS(=O)(=O)O)[C@@H](O[C@H]3O[C@H](COS(=O)(=O)O)[C@@H](OS(=O)(=O)O)[C@H](OS(=O)(=O)O)[C@H]3OS(=O)(=O)O)[C@H](OS(=O)(=O)O)[C@H]2OS(=O)(=O)O)cc1)C(=O)Nc1ccc(S[C@@H]2O[C@H](COS(=O)(=O)O)[C@@H](O[C@H]3O[C@H](COS(=O)(=O)O)[C@@H](OS(=O)(=O)O)[C@H](OS(=O)(=O)O)[C@H]3OS(=O)(=O)O)[C@H](OS(=O)(=O)O)[C@H]2OS(=O)(=O)O)cc1.[Na].[Na].[Na].[Na].[Na].[Na].[Na].[Na].[Na].[Na].[Na].[Na].[Na].[Na] [tetradecasodium N,N'-bis[4-[2,3,6-tri-O-sulfo-4-O-(2,3,4,6-tetra-O-sulfo-α-D-glucopyranosyl)-β-D-glucopyranosylthio]phenyl]ethanediamide]	9.5	90	90	80	1.2
O=C(CCCCCCCCC(=O)Nc1ccc(S[C@@H]2O[C@H](COS(=O)(=O)O)[C@@H](O[C@H]3O[C@H](COS(=O)(=O)O)[C@@H](OS(=O)(=O)O)[C@H](OS(=O)(=O)O)[C@H]3OS(=O)(=O)O)[C@H](OS(=O)(=O)O)[C@H]2OS(=O)(=O)O)cc1)Nc1ccc(S[C@@H]2O[C@H](COS(=O)(=O)O)[C@@H](O[C@H]3O[C@H](COS(=O)(=O)O)[C@@H](OS(=O)(=O)O)[C@H](OS(=O)(=O)O)[C@H]3OS(=O)(=O)O)[C@H](OS(=O)(=O)O)[C@H]2OS(=O)(=O)O)cc1.[Na].[Na].[Na].[Na].[Na].[Na].[Na].[Na].[Na].[Na].[Na].[Na].[Na].[Na] [tetradecasodium N,N'-bis[4-[2,3,6-tri-O-sulfo-4-O-(2,3,4,6-tetra-O-sulfo-α-D-glucopyranosyl)-β-D-glucopyranosylthio]phenyl]decanediamide]	5.0	88	87	75	0.8
O=C(CCC(=O)Nc1ccc(S[C@@H]2O[C@H](COS(=O)(=O)O)[C@@H](O[C@H]3O[C@H](COS(=O)(=O)O)[C@@H](OS(=O)(=O)O)[C@H](OS(=O)(=O)O)[C@H]3OS(=O)(=O)O)[C@H](OS(=O)(=O)O)[C@H]2OS(=O)(=O)O)cc1)Nc1ccc(S[C@@H]2O[C@H](COS(=O)(=O)O)[C@@H](O[C@H]3O[C@H](COS(=O)(=O)O)[C@@H](OS(=O)(=O)O)[C@H](OS(=O)(=O)O)[C@H]3OS(=O)(=O)O)[C@H](OS(=O)(=O)O)[C@H]2OS(=O)(=O)O)cc1 [Tetradecasodium N,N'--bis[4-[2,3,6-tri-O--sulfo-4-O--(2,3,4,6-tetra-O--sulfo-α-D-glucopyranosyl)-β -D-glucopyranosylthio]phenyl]butanediamide]	10.2				1.4
O=C(CCCCCCC(=O)Nc1ccc(S[C@@H]2O[C@H](COS(=O)(=O)O)[C@@H](O[C@H]3O[C@H](COS(=O)(=O)O)[C@@H](OS(=O)(=O)O)[C@H](OS(=O)(=O)O)[C@H]3OS(=O)(=O)O)[C@H](OS(=O)(=O)O)[C@H]2OS(=O)(=O)O)cc1)Nc1ccc(S[C@@H]2O[C@H](COS(=O)(=O)O)[C@@H](O[C@H]3O[C@H](COS(=O)(=O)O)[C@@H](OS(=O)(=O)O)[C@H](OS(=O)(=O)O)[C@H]3OS(=O)(=O)O)[C@H](OS(=O)(=O)O)[C@H]2OS(=O)(=O)O)cc1.[Na].[Na].[Na].[Na].[Na].[Na].[Na].[Na].[Na].[Na].[Na].[Na].[Na].[Na] [Tetradecasodium N,N'-bis[4-[2,3,6-tri-O-sulfo-4-O-(2,3,4,6-tetra-O-sulfo-α-D-glucopyranosyl)-β-D-glucopyranosylthio]phenyl]octanediamide]	9	87	71	44	1.5
O=C(CCCCCCCCCCCCC(=O)Nc1ccc(S[C@@H]2O[C@H](COS(=O)(=O)O)[C@@H](O[C@H]3O[C@H](COS(=O)(=O)O)[C@@H](OS(=O)(=O)O)[C@H](OS(=O)(=O)O)[C@H]3OS(=O)(=O)O)[C@H](OS(=O)(=O)O)[C@H]2OS(=O)(=O)O)cc1)Nc1ccc(S[C@@H]2O[C@H](COS(=O)(=O)O)[C@@H](O[C@H]3O[C@H](COS(=O)(=O)O)[C@@H](OS(=O)(=O)O)[C@H](OS(=O)(=O)O)[C@H]3OS(=O)(=O)O)[C@H](OS(=O)(=O)O)[C@H]2OS(=O)(=O)O)cc1.[Na].[Na].[Na].[Na].[Na].[Na].[Na].[Na].[Na].[Na].[Na].[Na].[Na].[Na] [tetradecasodium N,N'-bis[4-[2,3,6-tri-O-sulfo-4-O-(2,3,4,6-tetra-O-sulfo-α-D-glucopyranosyl)-β-D-glucopyranosylthio]phenyl]tetradecanediamide]	7				3.0
O=C(CCCCC(=O)Nc1ccc(S[C@@H]2O[C@H](COS(=O)(=O)O)[C@@H](O[C@H]3O[C@H](COS(=O)(=O)O)[C@@H](OS(=O)(=O)O)[C@H](OS(=O)(=O)O)[C@H]3OS(=O)(=O)O)[C@H](OS(=O)(=O)O)[C@H]2OS(=O)(=O)O)cc1)Nc1ccc(S[C@@H]2O[C@H](COS(=O)(=O)O)[C@@H](O[C@H]3O[C@H](COS(=O)(=O)O)[C@@H](OS(=O)(=O)O)[C@H](OS(=O)(=O)O)[C@H]3OS(=O)(=O)O)[C@H](OS(=O)(=O)O)[C@H]2OS(=O)(=O)O)cc1.[Na].[Na].[Na].[Na].[Na].[Na].[Na].[Na].[Na].[Na].[Na].[Na].[Na].[Na] [tetradecasodium N,N'-bis[4-[2,3,6-tri-O-sulfo-4-O-(2,3,4,6-tetra-O-sulfo-α-D-glucopyranosyl)-β-D-glucopyranosylthio]phenyl]hexanediamide]	10.5	90	85	76	1.0
O=C(CCCCCC(=O)Nc1ccc(S[C@@H]2O[C@H](COS(=O)(=O)O)[C@@H](O[C@H]3O[C@H](COS(=O)(=O)O)[C@@H](OS(=O)(=O)O)[C@H](OS(=O)(=O)O)[C@H]3OS(=O)(=O)O)[C@H](OS(=O)(=O)O)[C@H]2OS(=O)(=O)O)cc1)Nc1ccc(S[C@@H]2O[C@H](COS(=O)(=O)O)[C@@H](O[C@H]3O[C@H](COS(=O)(=O)O)[C@@H](OS(=O)(=O)O)[C@H](OS(=O)(=O)O)[C@H]3OS(=O)(=O)O)[C@H](OS(=O)(=O)O)[C@H]2OS(=O)(=O)O)cc1.[Na].[Na].[Na].[Na].[Na].[Na].[Na].[Na].[Na].[Na].[Na].[Na].[Na].[Na] [tetradecasodium N,N'-bis[4-[2,3,6-tri-O-sulfo-4-O-(2,3,4,6-tetra-O-sulfo-α-D-glucopyranosyl)-β-D-glucopyranosylthio]phenyl]heptanediamide]	10.7	87	87	50	1.0
O=C(CCCC(=O)Nc1ccc(S[C@@H]2O[C@H](COS(=O)(=O)O)[C@@H](O[C@@H]3O[C@H](COS(=O)(=O)O)[C@@H](OS(=O)(=O)O)[C@H](OS(=O)(=O)O)[C@H]3OS(=O)(=O)O)[C@H](OS(=O)(=O)O)[C@H]2OS(=O)(=O)O)cc1)Nc1ccc(S[C@@H]2O[C@H](COS(=O)(=O)O)[C@@H](O[C@@H]3O[C@H](COS(=O)(=O)O)[C@@H](OS(=O)(=O)O)[C@H](OS(=O)(=O)O)[C@H]3OS(=O)(=O)O)[C@H](OS(=O)(=O)O)[C@H]2OS(=O)(=O)O)cc1.[Na].[Na].[Na].[Na].[Na].[Na].[Na].[Na].[Na].[Na].[Na].[Na].[Na].[Na] [tetradecasodium N,N'-bis[4-[2,3,6-tri-O-sulfo-4-O-(2,3,4,6-tetra-O-sulfo-β-D-glucopyranosyl)-β-D-glucopyranosylthio]phenyl]pentanediamide]	12				2.0
